One data set relates to 129/Sv mice. Nature of the data set: Seizure induction by kainic acid injection in mice. To be noted: 30 mg/kg KA i.p.; WT and SIRT3 KO, female and male mice. The data set is classed as in vivo, mouse. On the procedure:
Littermate 129/Sv (6-8 weeks old) mice were used for the studies. SIRT3−/− mice were in a 129/sv background. Mice were housed under controlled temperature (25° C.) and light, and fed normal chow.
(§1) To induce seizures, both WT female (n=6) and KO female (n=5) mice and WT male (n=5) and KO male (n=6) mice were injected i.p. with 30 mg/kg KA.

Data set [1] concerns hippocampus and amygdala neurons. In words: Loss of hippocampus and amygdala neurons after kainic acid injections. It counts as in vivo, mouse. Particulars: FIG. 14. On the procedure: as §1
The effect of kainic acid injections on memory function was also investigated by examining hippocampus and amygdala neurons.

The test system of data set [2] is primary cerebellar granule neurons. In words: Cell survival measurement (MTT assay) after kainic acid treatment. It counts as cell-based, mouse. Particulars: T3-/- versus wild-type neurons; 50 uM kainic acid, 4 hr and 24 hrs; FIG. 9. The procedure:
SH-SY5Y cells were cultured in Dulbecco's Modified Eagle's Medium (DMEM) supplemented with 10% Fetal Calf Serum (FCS). SH-SY5Y cells were transfected with Lipofectamine 2000 (Invitrogen, Carlsbad, Calif.). Granule neuron cultures were prepared from cerebella of postnatal day 5 mouse pups. Neurons were placed on polyornithine-coated 96-well plates and grown in Basal Medium Eagle (BME) (Sigma, St. Louis, Mo.) supplemented with 10% calf serum (Hyclone Laboratories, Logan, Utah), 25 mM KCl, 2 mM glutamine, penicillin, and streptomycin. One day after cultures were prepared they were treated with 10 μM of the antimitotic agent cytosine-D-arabinofuranoside (Sigma, St. Louis, Mo.) to prevent the proliferation of non-neuronal cells.
The resistance to kainic acid of primary granule neurons derived from WT and SIRT3 null mice was quantified as the percentage of live cells after a 4 hr and 24 hrs treatment with 50 uM Kainic acid. The quantitation of dead cells upon Kainic acid treatment was carried out using the MTT assay was performed using CellTiter 96 Nonradioactive Cell Proliferation Assay kit (Promega).
A general note: Formazan colour is commonly taken as a measure of viable cells.

`C=C(C)[C@H]1CN[C@H](C(=O)O)[C@H]1CC(=O)O` [kainic acid]: the seizures result in the data set on 129/Sv mice is recorded as “caused seizures in all mice”. Also, the “loss of hippocampus and amygdala neurons” value in data set [1] was “loss of hippocampus and amygdala neurons”. Moreover, the cell survival entry in data set [2] was “reduced cell survival”.

The values are drawn from US20150233949A1, “DETECTION AND MODULATION OF CYTOCHROME C ACETYLATION” (President and Fellows of Harvard College, priority 2008, published 2015).
